In patent publication US6747039B2, “Aza-benzothiopyranoindazoles with antitumor activity” (Albany Molecular Research, Inc., priority 2002, dated 2004):

test system: HeLa S-3 cells; assay: Inhibition of cell growth (sulforhodamine B) to determine GI50; format: cell-based; conditions: Homo sapiens, HeLa S3; HeLa cells; Table 5, aza-analogs; read-out: IC50 (aza-analogs)
Procedure: Growth inhibition (GI50) values were measured with HeLa S-3 cells selected for growth on plastic. The procedure was based on the protocol of Skehan et al. (Skehan, P., et al., J. Natl. Cancer Inst., 82:1107-1112 (1990), which is hereby incorporated by reference). HeLa cells were plated at 2×10^4 cells/well in 96 well plates. One day later, a control plate was fixed by addition of TCA to 5%. After five rinses with tap water, the plate was air dried and stored at 4° C. Test compounds were added to the remaining plates at 10-fold dilutions between 0.01 and 100 μM. Two days later, all plates were fixed as described above. Cells were then stained by the addition of 100 μl per well of 0.4% sulforhodamine B (SRB) in 1% acetic acid for 30 min at 4° C. Wells were then quickly rinsed 5× with acetic acid (1%) and allowed to air dry. The SRB was then solubilized by the addition of 100 μl per well of unbuffered 10 mM Tris base. Dye was quantified by measuring absorbance at 490 nm on a Molecular Devices kinetic microplate reader. Growth at each inhibitor concentration relative to the untreated control was calculated according to the following equation: percent growth=100×(T−To)/(C−To), where T was the average optical density (OD) of the test wells after 2 days of treatment, To was the average OD of the wells in the control plate on day 0 and C was the average OD of untreated wells. Plots of percent growth versus inhibitor concentration were used to determine the GI50.
The data below shown in Table 4 summarizes the in vitro cyclin/cdk inhibition constants (IC50) of HeLa Cells for the compounds of the current invention.

Compound | IC50
CCN(CC)CCNc1ccc(CN)c2sc3ccncc3c(=O)c12 | 700 nM
CCN(CC)CCNc1ccc(CNC=O)c2sc3ccncc3c(=O)c12 | 1000 nM
CCN(CC)CCn1nc2c3c(c(CNS(C)(=O)=O)ccc31)Sc1ncccc1-2 [drawing 122] | 300 nM
CCN(CC)CCn1nc2c3c(c(CN)ccc31)Sc1ccncc1-2 [drawing 112] | 200 nM
CCN(CC)CCn1nc2c3c(c(CN)ccc31)Sc1ncccc1-2 [drawing 124] | 200 nM
CCN(CC)CCn1nc2c3c(c(CNC=O)ccc31)Sc1ccncc1-2 [drawing 114] | 200 nM
CCN(CC)CCn1nc2c3c(c(CNC=O)ccc31)Sc1ncccc1-2 [drawing 126] | 500 nM
CCN(CC)CCNc1ccc(CNS(C)(=O)=O)c2sc3ccncc3c(=O)c12 | 400 nM
CCN(CC)CCn1nc2c3c(c(CNC(=O)OC)ccc31)Sc1ccncc1-2 [drawing 116] | 100 nM
CCN(CC)CCn1nc2c3c(cccc31)Sc1ccncc1-2 | 1000 nM
CCN(CC)CCn1nc2c3c(c(CNC(=O)OC)ccc31)Sc1ncccc1-2 [drawing 120] | 500 nM
CCN(CC)CCNc1ccc(CNC(=O)OC)c2sc3ccncc3c(=O)c12 | 300 nM
CCN(CC)CCNc1cccc2sc3ccncc3c(=O)c12 | 3000 nM
CCN(CC)CCn1nc2c3c(c(CNS(C)(=O)=O)ccc31)Sc1ccncc1-2 [drawing 118] | 300 nM

same assay, conditions: Homo sapiens, HeLa S3; HeLa cells; Table 5, carbocyclic congeners; read-out: IC50 (carbocyclic congeners)

Compound | IC50
CCN(CC)CCn1nc2c3c(c(CN)ccc31)Sc1ccccc1-2 [reference compound] | 1000 nM
CCN(CC)CCNc1ccc(CN)c2sc3ccccc3c(=O)c12 [reference compound] | 600 nM
CCN(CC)CCn1nc2c3c(cccc31)Sc1ccccc1-2 [reference compound] | 9000 nM
CCN(CC)CCn1nc2c3c(c(CNC(=O)OC)ccc31)Sc1ccccc1-2 [reference compound] | 3000 nM
CCN(CC)CCn1nc2c3c(c(CNS(C)(=O)=O)ccc31)Sc1ccccc1-2 [reference compound] | 900 nM
CCN(CC)CCn1nc2c3c(c(CNC=O)ccc31)Sc1ccccc1-2 [reference compound] | 1000 nM
CCN(CC)CCNc1cccc2sc3ccccc3c(=O)c12 [reference compound] | > 10000 nM
CCN(CC)CCNc1ccc(CNC=O)c2sc3ccccc3c(=O)c12 [reference compound] | 3000 nM

same assay, conditions: Homo sapiens, HeLa S3; Table 6, comparison of nitrogen position, first compound of pair

Compound | GI50
CCN(CC)CCNc1ccc(C)c2sc3ccncc3c(=O)c12 | 400 nM
CCN(CC)CCn1nc2c3c(c(CNC=O)ccc31)Sc1ccncc1-2 [drawing 129] | 50 nM
CCN(CC)CCn1nc2c3c(c(C)ccc31)Sc1ccncc1-2 | 100 nM
CCN(CC)CCn1nc2c3c(c(CNS(C)(=O)=O)ccc31)Sc1ccncc1-2 [drawing 133] | 200 nM
CCN(CC)CCn1nc2c3c(c(CNC(=O)OC)ccc31)Sc1ccncc1-2 [drawing 131] | 100 nM
CCN(CC)CCn1nc2c3c(c(CN)ccc31)Sc1ccncc1-2 [drawing 127] | 200 nM

same assay, conditions: Homo sapiens, HeLa S3; Table 6, comparison of nitrogen position, second compound of pair

Compound | GI50
CCN(CC)CCn1nc2c3c(c(CN)ccc31)Sc1ncccc1-2 [drawing 128] | 200 nM
CCN(CC)CCn1nc2c3c(c(CNC=O)ccc31)Sc1ncccc1-2 [drawing 130] | 500 nM
CCN(CC)CCNc1ccc(C)c2sc3ncccc3c(=O)c12 | 3000 nM
CCN(CC)CCn1nc2c3c(c(C)ccc31)Sc1ncccc1-2 | 600 nM
CCN(CC)CCn1nc2c3c(c(CNS(C)(=O)=O)ccc31)Sc1ncccc1-2 [drawing 134] | 300 nM
CCN(CC)CCn1nc2c3c(c(CNC(=O)OC)ccc31)Sc1ncccc1-2 [drawing 132] | 500 nM
